In the supplement of paper PMC6045584:
± gives the standard deviation of the averaged measurements.

How the values were obtained:
[1] = compound: CCn1c(C(=O)N(C2CC2)C2CC2)cc2c3c(ncn3C)c(Nc3cc(C)n(C)n3)nc21; assay: surviving fraction relative to DMSO-only wells; higher = less growth inhibition; conditions: exposure time: 5 days
Outline: (§1)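 Viability was determined by CellTiter-Glo luminescence, expressed as surviving fraction normalised to the median of DMSO-only wells. The cells were log-phase tumour cell lines seeded at 250–500 per well in 384-well plates and, after 24 hours, exposed continuously for five days to inhibitors at 0.5, 1, 5, 10, 50, 100, 500 and 1000 nM. Three screens per line were run, keeping only lines with replicate Pearson r >0.7 and median Z' >0.3.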

FORETINIB = compound: COc1cc2c(Oc3ccc(NC(=O)C4(C(=O)Nc5ccc(F)cc5)CC4)cc3F)ccnc2cc1OCCCN1CCOCC1 [FORETINIB]; assay: as above; conditions: exposure time: 5 days
Outline: as §1

Row | Test System | surviving fraction ([1]; 0.5 nM) | surviving fraction ([1]; 1 nM) | surviving fraction ([1]; 5 nM) | surviving fraction ([1]; 10 nM) | surviving fraction ([1]; 50 nM) | surviving fraction ([1]; 100 nM) | surviving fraction ([1]; 500 nM) | surviving fraction ([1]; 1000 nM) | surviving fraction (FORETINIB; 0.5 nM) | surviving fraction (FORETINIB; 1 nM) | surviving fraction (FORETINIB; 5 nM) | surviving fraction (FORETINIB; 10 nM) | surviving fraction (FORETINIB; 50 nM) | surviving fraction (FORETINIB; 100 nM) | surviving fraction (FORETINIB; 500 nM) | surviving fraction (FORETINIB; 1000 nM)
1 | SUM149 BREAST | 1.04 ± 0.093 | 1.05 ± 0.12 | 1.07 ± 0.059 | 1.06 ± 0.026 | 1.04 ± 0.05 | 1.04 ± 0.16 | 1.06 ± 0.037 | 1.1 ± 0.16 | 0.95 ± 0.004 | 0.912 ± 0.011 | 1.04 ± 0.17 | 0.9 ± 0.0082 | 0.831 ± 0.036 | 0.969 ± 0.13 | 0.353 ± 0.05 | 0.409 ± 0.021
2 | SUM149.B1*.S BREAST | 1.05 ± 0.053 | 0.99 ± 0.02 | 1.05 ± 0.014 | 1 ± 0.013 | 1.08 ± 0.045 | 1.11 ± 0.018 | 1.07 ± 0.011 | 1.08 ± 0.033 | 1.13 ± 0.068 | 1.19 ± 0.078 | 1.12 ± 0.022 | 1.11 ± 0.021 | 1.11 ± 0.059 | 1.09 ± 0.054 | 0.855 ± 0.033 | 0.515 ± 0.067
3 | SUM159 BREAST | 1.04 ± 0.063 | 0.972 ± 0.041 | 0.997 ± 0.012 | 0.873 ± 0.2 | 0.95 ± 0.12 | 0.965 ± 0.12 | 0.955 ± 0.13 | 0.959 ± 0.1 | 1.13 ± 0.038 | 1.12 ± 0.046 | 1.11 ± 0.038 | 1.09 ± 0.028 | 1.071 ± 0.0061 | 1.06 ± 0.018 | 1.01 ± 0.018 | 0.566 ± 0.037
4 | SYO1 SYNOVIAL | 0.939 ± 0.069 | 0.927 ± 0.055 | 0.951 ± 0.027 | 0.917 ± 0.09 | 1.01 ± 0.051 | 0.97 ± 0.011 | 0.977 ± 0.045 | 0.98 ± 0.017 | 0.989 ± 0.038 | 0.971 ± 0.05 | 0.929 ± 0.026 | 0.914 ± 0.027 | 0.821 ± 0.013 | 0.749 ± 0.028 | 0.25 ± 0.0099 | 0.189 ± 0.026
5 | T47D BREAST | 1.02 ± 0.045 | 0.994 ± 0.066 | 1 ± 0.026 | 0.955 ± 0.024 | 1.04 ± 0.02 | 1.05 ± 0.014 | 1.04 ± 0.067 | 1.04 ± 0.006 | 1.02 ± 0.032 | 1.08 ± 0.056 | 1.08 ± 0.023 | 1.08 ± 0.029 | 1.04 ± 0.025 | 1.08 ± 0.04 | 0.897 ± 0.064 | 0.898 ± 0.028
